Laboratory results from the supplement of paper PMC10307832.

Legend:
Test in all cases: relative viability (nuclei count vs DMSO), 5 days (fraction); higher = more cells survive
[1] = compound: NCC(=O)Nc1ccc(-n2nc(C(F)(F)F)cc2-c2ccc3c(ccc4ccccc43)c2)cc1 + CS(=O)(=O)N1CCN(Cc2cc3nc(-c4cccc5[nH]ncc45)nc(N4CCOCC4)c3s2)CC1 [Pictilisib] (partner 1 µM)
Procedure, shortened: (§1)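 Medians of duplicate plates are given as relative viability. That measure is the nuclei count in treated wells divided by the count in vehicle wells. Counts were taken on 4× images of lung cancer cell lines in 1536-well plates, 5 days after pin-tool dosing the day after seeding with one drug alone or a fixed anchor-drug dose plus five library-drug doses (not always all listed) in √10 steps.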

[2] = compound: NCC(=O)Nc1ccc(-n2nc(C(F)(F)F)cc2-c2ccc3c(ccc4ccccc43)c2)cc1 + O=C(CCCCCCC(=O)Nc1ccccc1)NO [Vorinostat] (partner 1 µM)
Procedure, shortened: as §1

kb NB 142-70 + Olaparib = compound: C1CSC2=C(C(=O)N1)SC3=C2C=C(C=C3)O [kb NB 142-70] + O=C(c1cc(Cc2n[nH]c(=O)c3ccccc23)ccc1F)N1CCN(C(=O)C2CC2)CC1 [Olaparib] (partner 8 µM)
Procedure, shortened: as §1

[3] = compound: C1CSC2=C(C(=O)N1)SC3=C2C=C(C=C3)O [kb NB 142-70] + Nc1nc2[nH]cc(CCc3ccc(C(=O)N[C@@H](CCC(=O)O)C(=O)O)cc3)c2c(=O)[nH]1 [Pemetrexed] (partner 0.2 µM)
Procedure, shortened: as §1

| Cell Line | relative viability ([1]; first compound 0.02 µM) | relative viability ([1]; first compound 0.06325 µM) | relative viability ([1]; first compound 0.2 µM) | relative viability ([1]; first compound 0.6325 µM) | relative viability ([1]; first compound 2 µM) | relative viability ([2]; first compound 0.02 µM) | relative viability ([2]; first compound 0.06325 µM) | relative viability ([2]; first compound 0.2 µM) | relative viability ([2]; first compound 0.6325 µM) | relative viability ([2]; first compound 2 µM) | relative viability (kb NB 142-70 + Olaparib; first compound 0.1 µM) | relative viability (kb NB 142-70 + Olaparib; first compound 1 µM) | relative viability (kb NB 142-70 + Olaparib; first compound 3.162 µM) | relative viability ([3]; first compound 0.1 µM) | relative viability ([3]; first compound 1 µM) | relative viability ([3]; first compound 3.162 µM) |
| --- | --- | --- | --- | --- | --- | --- | --- | --- | --- | --- | --- | --- | --- | --- | --- | --- |
| IA-LM | 0.444 | 0.356 | 0.302 | 0.477 | 0.288 | 0.989 | 1.08 | 0.981 | 0.908 | 0.896 | 0.841 | 0.771 | 0.807 | – | – | – |
| LC-2-ad | 0.428 | 0.503 | 0.377 | 0.453 | 0.403 | 0.68 | 0.757 | 0.769 | 0.673 | 0.76 | 0.681 | 0.716 | 0.649 | 0.275 | 0.23 | 0.295 |
| LCLC-97TM1 | 0.29 | 0.215 | – | 0.178 | 0.187 | 0.596 | 0.713 | 0.699 | 0.69 | 0.637 | 0.404 | 0.371 | 0.198 | 0.174 | 0.186 | 0.182 |
| LCLC-103H | 0.606 | 0.61 | 0.571 | 0.648 | 0.673 | 0.674 | 0.831 | 0.818 | 0.77 | 0.862 | 0.751 | 0.749 | 0.847 | 0.447 | 0.453 | 0.471 |
| LK-2 | 0.536 | 0.669 | 0.462 | 0.577 | 0.616 | 0.445 | 0.279 | 0.244 | 0.288 | 0.256 | 0.822 | 0.551 | 0.323 | 0.327 | 0.215 | 0.224 |
| LOU-NH91 | 0.497 | 0.622 | 0.49 | 0.476 | 0.537 | 0.895 | 0.977 | 0.917 | 0.872 | 1.01 | 0.879 | 0.917 | 0.552 | 0.432 | 0.462 | 0.386 |
| LU99A | 0.338 | 0.36 | 0.321 | 0.311 | 0.294 | 0.415 | 0.588 | 0.519 | 0.56 | 0.535 | 0.274 | 0.291 | 0.251 | 0.175 | 0.196 | 0.187 |
| LXF-289 | 0.868 | 0.583 | 0.762 | 0.753 | 0.798 | 0.737 | 0.91 | 0.777 | 0.731 | 0.787 | 1.04 | 1.05 | 0.772 | 0.86 | 0.989 | 0.715 |
| NCI-H23 | 0.436 | 0.511 | 0.557 | 0.489 | 0.424 | 0.583 | 0.626 | 0.644 | 0.573 | 0.555 | 0.314 | 0.318 | 0.241 | 0.621 | 0.594 | 0.367 |
| NCI-H322M | 0.516 | 0.515 | 0.521 | 0.523 | 0.483 | 0.993 | 0.957 | 0.836 | 0.927 | 0.984 | 0.777 | 0.795 | 0.621 | 0.614 | 0.631 | 0.45 |
| NCI-H358 | 0.43 | 0.309 | 0.322 | 0.383 | 0.341 | 0.735 | 0.728 | 0.694 | 0.768 | 0.653 | 0.531 | 0.489 | 0.297 | 0.175 | 0.141 | 0.114 |
| NCI-H441 | 0.469 | 0.441 | 0.469 | 0.366 | 0.575 | 1.02 | 0.705 | 0.987 | 0.72 | 0.866 | 0.631 | 0.533 | 0.22 | 0.269 | 0.248 | 0.196 |
| NCI-H460 | 0.406 | 0.409 | 0.343 | 0.382 | 0.203 | 0.707 | 0.662 | 0.687 | 0.737 | 0.661 | 0.396 | 0.509 | 0.526 | 0.058 | 0.0629 | 0.0654 |
| NCI-H520 | 0.351 | 0.265 | 0.323 | 0.277 | 0.277 | 0.631 | 0.779 | 0.873 | 0.77 | 0.763 | 0.377 | 0.35 | 0.228 | 0.765 | 0.667 | 0.375 |
| NCI-H522 | – | – | – | – | – | 0.91 | 0.836 | 0.802 | 0.973 | 0.903 | 0.69 | 0.587 | 0.509 | 1.03 | 0.871 | 0.745 |
| NCI-H727 | 0.427 | 0.45 | 0.406 | 0.362 | 0.533 | 1.28 | 0.908 | 1.28 | 1.21 | 1.05 | 0.743 | 0.592 | 0.68 | – | – | – |
| NCI-H1299 | 0.346 | 0.8 | 0.804 | 0.781 | 0.732 | – | – | – | – | – | 1.02 | 0.949 | 0.837 | – | – | – |
| NCI-H1563 | 0.69 | 0.683 | 0.669 | 0.611 | 0.622 | – | – | – | – | – | – | – | – | 0.864 | 0.961 | 0.774 |
| NCI-H1648 | – | – | – | – | – | 0.416 | 0.423 | 0.762 | 0.408 | 0.536 | 0.645 | 0.707 | 0.738 | 0.731 | 0.763 | 0.932 |
| NCI-H1703 | 0.218 | 0.244 | 0.278 | 0.255 | 0.262 | – | – | – | – | – | 0.47 | 0.387 | 0.455 | – | – | – |
| NCI-H1792 | 0.244 | 0.319 | 0.277 | 0.315 | 0.344 | – | – | – | – | – | 0.406 | 0.547 | 0.619 | 0.862 | 0.828 | 1.13 |
| NCI-H2342 | – | – | – | – | – | 0.871 | 0.817 | 0.663 | 0.864 | 0.743 | 0.397 | 0.458 | 0.408 | 0.781 | 0.774 | 0.697 |
| SW 900 | – | – | – | – | – | 0.492 | 0.464 | 0.44 | 0.546 | 0.53 | 0.906 | 1.14 | 0.789 | 0.451 | 0.523 | 0.468 |
